US20050165025A1, “Combination therapy with 5HT 1A and 5HT 1B-receptor antagonists” (Recordati Ireland Ltd., priority 2004, published 2005)
Where two headings read alike, the source gives them in different places.

Experiments:
[1] = tested on: anaesthetised rats; experiment: Rhythmic bladder-voiding contractions induced by bladder filling in anaesthetised rats; format: in vivo, rat; conditions: compound alone
Experimental: Female Sprague-Dawley rats weighing 225-275 g (Crl: CDo Br, Charles River Italia) were used. The animals were housed with free access to food and water and maintained on a forced 12-hour alternating light-dark cycle at 22-24° C. for at least one week, except during the experiment. The activity on rhythmic bladder voiding contractions was evaluated according to the method of Dray J., Pharmacol. Methods, 13:157, 1985, with some modifications as in Guarneri (Guarneri, Pharmacol. Res. 27:173, 1993. Briefly, the rats were anaesthetised by subcutaneous injection of 1.25 g/kg (5 ml/kg) urethane, after which the urinary bladder was catheterised via the urethra using PE 50 polyethylene tubing filled with physiological saline. The catheter was tied in place with a ligature around the external urethral orifice and was connected to conventional pressure transducers (Statham P23 ID/P23 XL). […] The bladder was then filled via the recording catheter by incremental volumes of warm (37° C.) saline until reflex bladder-voiding contractions occurred (usually 0.8-1.5 ml). For intravenous injection of bioactive compounds, PE 50 polyethylene tubing filled with physiological saline was inserted into the jugular vein. Tested compounds were administered or co-administered in solution in a final volume of 0.5 ml/kg.
From the cystometrogram, the number of contractions recorded 15 minutes before (basal values) and after treatment, as well as the mean amplitude of these contractions (mean height of the peaks in mmHg), was evaluated.
Since most compounds produced an effect that was relatively rapid in onset and led to a complete cessation of bladder contractions, bioactivity was conveniently estimated by measuring the duration of bladder quiescence (i.e., the length of the time in minutes during which no contractions occurred: disappearance time=DT). The administered doses (alone or in combination) of the tested compounds were chosen on the basis of previously published results obtained with the same compounds in the utilized model (Testa et al., J. Pharmacol. Exp. Ther. 290: 1258, 1999; Leonardi et al., J. Pharmacol. Exp. Ther. 299: 1027, 2001; Testa et al., BJU Int. 87: 256, 2001) or of their affinity for the 5HT1A or 5-HT1B receptor.

[2] = molecular target: T1, human 5HT1A-serotonergic receptor (Homo sapiens, UniProt P08908); conditions: literature reference given in table; read-out: Binding affinity at 5HT1A receptors, Ki; cited from earlier work
T1 construct: expressed in transfected cells; host or cells: HeLa (human), stably transfected; cell membranes
T1 sequence (P08908 1-422): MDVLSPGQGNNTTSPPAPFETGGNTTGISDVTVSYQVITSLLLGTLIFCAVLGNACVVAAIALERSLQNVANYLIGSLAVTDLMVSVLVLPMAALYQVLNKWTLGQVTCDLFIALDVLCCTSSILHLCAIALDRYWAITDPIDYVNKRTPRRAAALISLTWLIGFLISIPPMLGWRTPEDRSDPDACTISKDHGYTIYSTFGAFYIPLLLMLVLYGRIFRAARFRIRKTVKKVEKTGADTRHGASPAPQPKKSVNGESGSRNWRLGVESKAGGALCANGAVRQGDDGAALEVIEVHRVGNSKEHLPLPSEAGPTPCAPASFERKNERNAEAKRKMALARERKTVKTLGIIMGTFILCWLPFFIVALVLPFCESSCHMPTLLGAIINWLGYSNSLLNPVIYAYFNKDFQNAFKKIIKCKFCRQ

[3] = molecular target: T1, human 5HT1A-serotonergic receptor; experiment: Radioligand binding to recombinant 5-HT1A receptors ([3H]8-OH-DPAT, HeLa cell membranes); conditions: Recordati data on file; read-out: Binding affinity at 5HT1A receptors, Ki
Experimental: Genomic clone G-21 coding for the human 5HT1A-serotonergic receptor was stably transfected in a human cell line (HeLa). HeLa cells were grown as monolayers in Dulbecco's modified Eagle medium (DMEM), containing 10% fetal bovine serum, gentamicin ([…]) and 5% carbon dioxide, at 37° C. The cells were detached from the growth flask at 95% confluence by a cell scraper and were lysed in cold 5 mM Tris and 5 mM EDTA buffer (pH 7.4). The homogenates were centrifuged at 40000×g×20 minutes and the pellets were resuspended in a small volume of cold 5 mM Tris and 5 mM EDTA buffer (pH 7.4) and immediately frozen and stored at −70° C. until use. On the day of experiment, the cell membranes were resuspended in incubation buffer: 50 mM Tris HCl (pH 7.4), 2.5 mM MgCl2, […] (Fargin et al., Nature 335, 358, 1988). The membranes were incubated in a fmal volume of 1 ml for 30 minutes at 30° C. with 1 nM [^3H]8—OH-DPAT, in the absence or presence of the test compounds. Non-specific binding was determined in the presence of 10 μM 5-HT. […]
The affinity of the tested compounds was evaluated as inhibition of specific binding of the radioligand to 5-HT1A receptors (IC50) by using the non-linear curve-fitting program Allfit (De Lean et al., Am. J. Physiol. 235: E97, 1978). […]

In the case of `COc1ccccc1N1CCN(CCN(C(=O)C2CCCCC2)c2ccccc2[N+](=O)[O-])CC1` [REC 15/3079, 1-[N-(2-nitrophenyl)-N-cyclohexylcarbonyl-2-aminoethyl]-4-(2-methoxyphenyl)piperazine], the “disappearance time (DT) of bladder contractions” value (from here on “disappearance time (DT)”) ([1]; 0.03 mg/kg i.v.) is listed as 2.26 ± 0.51 min and the Ki [2] is listed as 0.2 nM.
In the case of `O=C1c2ccccc2S(=O)(=O)N1CCCCN1CCN(c2cc(Cl)cc3c2OCCO3)CC1` [Rec 0/031 1-DU 125530, 2-[4-[4-(7-chloro-2,3-dihydro-1,4-benzodioxin-5-yl)piperazin-1-yl]butyl]-1,2-benzisothiazol-3(2H)-one 1,1-dioxide], the “disappearance time (DT)” value ([1]; 0.01 mg/kg i.v.) is reported as 6.96 ± 1.05 min.
For `OC(CCN1CCN(c2cccc3[nH]ccc23)CC1)(c1ccccn1)c1ccccn1` [Rec 27/0206, 1-[3-hydroxy-3,3 bis-(2-pyridyl)propyl]-4-(4-indolyl)piperazine], the “disappearance time (DT)” value ([1]; 0.1 mg/kg i.v.) was 9.29 ± 0.80 min and the Ki [3] was 4.75 nM.
For `COc1ccc(NC(=O)c2ccc(-c3ccc(-c4noc(C)n4)cc3C)cc2)cc1OCCN(C)C` [SB 216641], the “disappearance time (DT)” value ([1]; 0.3 mg/kg i.v.) was 1.50 ± 0.28 min.
For `Cc1nc(-c2ccc(-c3ccc(C(=O)N4CCc5cc6c(cc54)C4(CCN(C)CC4)CO6)cc3)c(C)c2)no1` [SB 224289], the “disappearance time (DT)” value ([1]; 1.0 mg/kg i.v.) was 2.40 ± 0.46 min.
With `COc1ccccc1N1CCN(CCN(C(=O)C2CCCCC2)c2ccccn2)CC1` [WAY 100635, N-[2-[4-(2-methoxyphenyl)piperazin-1-yl]ethyl]-N-(2-pyridyl)cyclohexanecarboxamide] the “disappearance time (DT)” value ([1]; 0.01 mg/kg i.v.) was 10.39 ± 1.45 min.
